Experimental data as given in PubChem BioAssay AID1963985 (Molecular Pharmacology Branch, DTP, NCI, 2024).
pIC50: −log10 of the molar value.

Tested on: 252836-082-R-J2-PDC tumor spheroids, viability
Test: Anticancer human tumor 252836-082-R-J2-PDC patient-derived head and neck squamous cell carcinoma cell line growth inhibition [PI3K]
Settings: spheroids with HUVEC and MSC; for pIC50: curve of first compound; for viability, T/C: stronger effect = lower value
Outline: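 Tumor cells were combined with HUVEC and MSCs into spheroids, then dosed with PI3K-inhibitor combinations over half-log ranges capped near clinical Cmax or 10 microM.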

[1] = second compound 0.0316 µM, first compound 0.0316 µM
[2] = second compound 0.0316 µM, first compound 0.1 µM
[3] = second compound 0.0316 µM, first compound 0.316 µM
[4] = second compound 0.0316 µM, first compound 1 µM
[5] = second compound 0.0316 µM, first compound 3.16 µM
[6] = second compound 0.0316 µM, first compound 10 µM
[7] = second compound 0.1 µM, first compound 0.0316 µM
[8] = second compound 0.1 µM, first compound 0.1 µM
[9] = second compound 0.1 µM, first compound 0.316 µM
[10] = second compound 0.1 µM, first compound 1 µM
[11] = second compound 0.1 µM, first compound 3.16 µM
[12] = second compound 0.1 µM, first compound 10 µM
[13] = second compound 0.316 µM, first compound 0.0316 µM
[14] = second compound 0.316 µM, first compound 0.1 µM
[15] = second compound 0.316 µM, first compound 0.316 µM
[16] = second compound 0.316 µM, first compound 1 µM
[17] = second compound 0.316 µM, first compound 3.16 µM
[18] = second compound 0.316 µM, first compound 10 µM
[19] = second compound 1 µM, first compound 0.0316 µM
[20] = second compound 1 µM, first compound 0.1 µM
[21] = second compound 1 µM, first compound 0.316 µM
[22] = second compound 1 µM, first compound 1 µM
[23] = second compound 1 µM, first compound 3.16 µM
[24] = second compound 1 µM, first compound 10 µM
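Note: spheroids exposed to agents for seven days before readout.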
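Throughout, for viability, T/C: percent of vehicle DMSO control viability so 100% = untreated growth.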

For `CC1(C)CCC(Nc2ncc(C(F)(F)F)c(-c3c[nH]c4c(P(C)(C)=O)c(C#N)ccc34)n2)CN1` (centres undefined) + Cc1nc(NC(=O)N2CCCC2C(N)=O)sc1-c1ccnc(C(C)(C)C(F)(F)F)c1, the pIC50 (second compound 0.0316 µM) was greater than 7.50, the pIC50 (second compound 0.1 µM) was greater than 7.50 and the pIC50 (second compound 0.316 µM) was greater than 7.50. The pIC50 (second compound 1 µM) was greater than 7.50, the pIC50 (second compound 3.16 µM) was greater than 7.50 and the pIC50 (second compound 10 µM) was greater than 7.50. It also gave a viability, T/C [1] of 39.2%, a viability, T/C [2] of 27.6% and a viability, T/C [3] of 33.3%. It also gave a viability, T/C [4] of 30.5%, a viability, T/C [5] of 38.8% and a viability, T/C [6] of 6.62%. The viability, T/C [7] was 36.2%, the viability, T/C [8] was 33.4% and the viability, T/C [9] was 32.2%. The viability, T/C [10] was 30.9%, the viability, T/C [11] was 38.4% and the viability, T/C [12] was 7.19%. For the same compound, the viability, T/C [13] was 28.8%, the viability, T/C [14] was 27.6% and the viability, T/C [15] was 28.4%. The viability, T/C [16] was 27.2%, the viability, T/C [17] was 32.8% and the viability, T/C [18] was 6.05%. For the same compound, the viability, T/C [19] was 27.4%, the viability, T/C [20] was 26.9% and the viability, T/C [21] was 28.2%. It also gave a viability, T/C [22] of 25.9%, a viability, T/C [23] of 23.1% and a viability, T/C [24] of 3.48%. It also gave a viability, T/C (second compound 3.16 µM, first compound 0.0316 µM) of 23.1%, a viability, T/C (second compound 3.16 µM, first compound 0.1 µM) of 21.1% and a viability, T/C (second compound 3.16 µM, first compound 0.316 µM) of 22.7%. It also gave a viability, T/C (second compound 3.16 µM, first compound 1 µM) of 24%, a viability, T/C (second compound 3.16 µM, first compound 3.16 µM) of 20.9% and a viability, T/C (second compound 3.16 µM, first compound 10 µM) of 2.65%. For the same compound, the viability, T/C (second compound 10 µM, first compound 0.0316 µM) was 15.8%, the viability, T/C (second compound 10 µM, first compound 0.1 µM) was 18.1% and the viability, T/C (second compound 10 µM, first compound 0.316 µM) was 19.4%. It also gave a viability, T/C (second compound 10 µM, first compound 1 µM) of 17.7%, a viability, T/C (second compound 10 µM, first compound 3.16 µM) of 12.7% and a viability, T/C (second compound 10 µM, first compound 10 µM) of 1.03%.
Compound `CC(C)NCC(C(=O)N1CCN(c2ncnc3c2C(C)CC3O)CC1)c1ccc(Cl)cc1` (centres undefined) + COc1c(OCCCN2CCOCC2)ccc2c3n(c(=NC(=O)c4cnc(N)nc4)nc12)CCN3 has a pIC50 (second compound 0.00316 µM) of 5.98, a pIC50 (second compound 0.01 µM) of 6.25 and a pIC50 (second compound 0.0316 µM) of 6.55. It also gave a pIC50 (second compound 0.1 µM) greater than 7.50, a pIC50 (second compound 0.316 µM) greater than 7.50 and a pIC50 (second compound 1 µM) greater than 7.50. The viability, T/C (second compound 0.00316 µM, first compound 0.0316 µM) was 82.9%, the viability, T/C (second compound 0.00316 µM, first compound 0.1 µM) was 77.9% and the viability, T/C (second compound 0.00316 µM, first compound 0.316 µM) was 64.8%. For the same compound, the viability, T/C (second compound 0.00316 µM, first compound 1 µM) was 50.6%, the viability, T/C (second compound 0.00316 µM, first compound 3.16 µM) was 34.6% and the viability, T/C (second compound 0.00316 µM, first compound 10 µM) was 20.3%. The viability, T/C (second compound 0.01 µM, first compound 0.0316 µM) was 71.2%, the viability, T/C (second compound 0.01 µM, first compound 0.1 µM) was 64.3% and the viability, T/C (second compound 0.01 µM, first compound 0.316 µM) was 59.7%. The viability, T/C (second compound 0.01 µM, first compound 1 µM) was 41.3%, the viability, T/C (second compound 0.01 µM, first compound 3.16 µM) was 26.4% and the viability, T/C (second compound 0.01 µM, first compound 10 µM) was 15.4%. For the same compound, the viability, T/C [1] was 56.2%, the viability, T/C [2] was 56.4% and the viability, T/C [3] was 47.2%. For the same compound, the viability, T/C [4] was 40%, the viability, T/C [5] was 21.9% and the viability, T/C [6] was 11.6%. It also gave a viability, T/C [7] of 36.6%, a viability, T/C [8] of 30.3% and a viability, T/C [9] of 26%. It also gave a viability, T/C [10] of 24.7%, a viability, T/C [11] of 17.1% and a viability, T/C [12] of 10.2%. It also gave a viability, T/C [13] of 14.3%, a viability, T/C [14] of 13.8% and a viability, T/C [15] of 11.6%. For the same compound, the viability, T/C [16] was 12.8%, the viability, T/C [17] was 8.52% and the viability, T/C [18] was 5.44%. For the same compound, the viability, T/C [19] was 4.96%, the viability, T/C [20] was 3.28% and the viability, T/C [21] was 5.23%. It also gave a viability, T/C [22] of 4.34%, a viability, T/C [23] of 3.37% and a viability, T/C [24] of 3.42%.
